Laboratory results published in patent publication US11691989B2, “Macrocyclic indoles as Mcl-1 inhibitors” (ASCENTAGE PHARMA (SUZHOU) CO., LTD., priority 2018, dated 2023).
≈ marks a conversion by molar mass, not a printed value.

Experiments:
[1] = biological target: Mcl-1 protein (residues 171-323) (Homo sapiens (Human), UniProt Q07820); assay: Inhibition of Mcl-1 by fluorescence polarization (FP) competitive binding assay with FAM-Bid tracer; settings: 2 nM FAM-Bid, 20 nM Mcl-1, 30 min, read-out: Mc1-1 (FP)
How it was run: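 Competitive FP binding of compounds against FAM-Bid tracer (final 2 nM) on Mcl-1 (final 20 nM) in PBS with 0.01% BGG and 0.01% Triton X-100, 5% final DMSO.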

OPM-2 cells = assay: Cell viability assay (OPM-2 cells), CCK-8; format: cell-based; settings: 5% FBS
How it was run: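 OPM-2 myeloma cells (20000/well) incubated with serially diluted compound for 24 h at 37 °C, 5% CO2. Viability read by CCK-8 (4 h) absorbance at 450 nm, normalised to vehicle; IC50 from nonlinear regression.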

NCI-H929 cells = assay: Cell viability assay (NCI-H929 cells), CCK-8; format: cell-based; settings: 5% FBS
How it was run: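 NCI-H929 cells (20000/well) exposed to serially diluted compounds for 24 h at 37 °C, 5% CO2. Viability by CCK-8, absorbance at 450 nm after 1-4 h, normalized to vehicle-treated cells. IC50 by nonlinear regression.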

[2] = Microsome clearance assay, mouse; format: in vitro ADME; settings: 0.5 mg/ml protein, 1 mM NADPH, 60 minutes; for microsomal CLint at 5 μM: male, CD-1, mouse, pooled liver microsomes, pH 7.4, mouse liver microsomes, read-out: Mouse Liver Microsome Clint (μL/min/mg protein); for Mouse Liver Microsome Clint (μL/min/mg protein): mouse liver microsomes, 5 μM
Procedure: (§1) Representative Compounds of the Disclosure were tested in a microsome clearance assay. Pooled liver microsomes (20 mg/ml) from human, male Wister rat, and male CD-1 mouse were obtained from BD Bioscience (Franklin Lakes, N.J. USA). Incubation reaction mixtures contained a final concentration of 0.1M sodium phosphate buffer (pH 7.4), 0.5 mg/ml microsomal protein, 5 μM of test sample and 1 mM NADPH in a total volume of 400 μl. The incubations were done for 60 minutes and 300 μl of the mixtures was transferred to 150 μl of ice cold methanol to terminate reactions. After vortexes for 3 minutes and centrifuged at 4000 rpm at 4° C. for 10 minutes, the clear supernatant was used directly for analysis. The samples were analyzed by Applied Biosystems API 3200 Q TRAP LC/MS/MS system using electrospray ionization mode.

[3] = Microsome clearance assay, rat; format: in vitro ADME; settings: 0.5 mg/ml protein, 1 mM NADPH, 60 minutes; for microsomal CLint at 5 μM: male, Wister, rat, pooled liver microsomes, pH 7.4, rat liver microsomes, read-out: Rat Liver Microsome Clint (μL/min/mg protein)
Procedure: as §1

[4] = Microsome clearance assay, human; format: in vitro ADME; settings: 0.5 mg/ml protein, 1 mM NADPH, 60 minutes; for microsomal CLint at 5 μM: human, pooled liver microsomes, pH 7.4, human liver microsomes, read-out: Human Liver Microsome Clint (μL/min/mg protein)
Procedure: as §1

[5] = Kinetic solubility assay in PBS buffer; format: physicochemical; settings: for solubility: PBS buffer, pH 6.5, aqueous buffer, thermodynamic from solid, read-out: Solubility (pH 6.5, μg/mL)
Procedure: Representative Compounds of the Disclosure were tested in a kinetic solubility assay in PBS buffer. PBS buffer was prepared by dissolving 4.86 g of potassium dihydrogen phosphate and 5.09 g of disodium hydrogen phosphate dodecahydrate in 1 L of ultrapure water (final pH 6.5). 0.5 mg of test sample was dissolved in 1 mL of methanol and the stock solution was transferred into 2 mL EP tube, and evaporated at 50° C. for 3 h. To the tube was added 1 mL of PBS buffer and the mixture was stirred and shaken for 1-2 h. The solution was allowed to stand overnight and then filtered before HPLC analysis. Another 1.5 mg of the sample was dissolved in 3 mL of methanol to prepare a calibration curve with a series of concentration range of 5-500 μM. The solubility of each sample was determined by the measured peak area in HPLC.

Mcl-1 protein (residues 171-323), sequence (Q07820 171-323): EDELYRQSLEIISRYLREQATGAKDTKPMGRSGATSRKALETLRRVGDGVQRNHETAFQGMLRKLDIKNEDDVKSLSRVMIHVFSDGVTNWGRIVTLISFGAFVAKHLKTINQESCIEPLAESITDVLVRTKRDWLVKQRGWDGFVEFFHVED

SMILES	IC50 [1]	IC50 (NCI-H929 cells; Homo sapiens, NCI-H929, 24 h)	microsomal CLint at 5 μM [2]	microsomal CLint at 5 μM [3]	microsomal CLint at 5 μM [4]	solubility [5]	IC50 (NCI-H929 cells; 24 hrs)	Mouse Liver Microsome Clint (μL/min/mg protein) [2]	Rat Liver Microsome Clint (μL/min/mg protein) ([3]; rat liver microsomes, 5 μM)	Human Liver Microsome Clint (μL/min/mg protein) ([4]; human liver microsomes, 5 μM)	Solubility (pH 6.5, μg/mL) ([5]; PBS buffer pH 6.5)	IC50 (OPM-2 cells; Homo sapiens, OPM-2, 24 h)	IC50 (OPM-2 cells; 24 hours)
Cc1c(C(=O)O)n2c3ccc(Cl)c(c13)-c1c(nn3c1COCC3)CSCc1cc(n(C)n1)CSc1cc(c3ccc(F)cc3c1)OCCC2 [Cpd. No. 4, (Z)-1^5-chloro-9^6-fluoro-1^3,6^1-dimethyl-2^6,2^7-dihydro-1^1H,24H,6^1H-10-oxa-4,8-dithia-2(3,2)-pyrazolo[5,1-c][1,4]oxazina-1(4,1)-indola-6(3,5)-pyrazola-9(3,1)-naphthalenacyclotridecaphane-1^2-carboxylic acid]	14 nM	49 nM	41.2 µL/min/mg	19.8 µL/min/mg	13.8 µL/min/mg	< 1 µg/mL	–	–	–	–	–	438 nM	–
COCCn1nc2c(c1C)-c1c(Cl)ccc3c1c(C)c(C(=O)O)n3CCCOc1cc(cc3ccccc13)SCc1cc(nn1C)CSC2 [Cpd. No. 11, (Z)-1^5-chloro-2^1-(2-methoxyethyl)-1^3,2^5,6^1-trimethyl-1^1H,2^1H,6^1H-10-oxa-4,8-dithia-1(4,1)-indola-2(4,3),6(3,5)-dipyrazola-9(3,1)-naphthalenacyclotridecaphane-1^2-carboxylic acid]	15 nM	68 nM	145 µL/min/mg	35.4 µL/min/mg	39.6 µL/min/mg	< 1 µg/mL	–	–	–	–	–	171 nM	–
Cc1c(C(=O)O)n2c3ccc(Cl)c(c13)-c1c(nn3c1CCC3)CSCc1cc(n(C)n1)CSc1cc(c3ccc(F)cc3c1)OCCC2 [Cpd. No. 2, (Z)-1^5-chloro-9^6-fluoro-1^3,6^1-dimethyl-2^5,2^6-dihydro-1^1H,2^4H,6^1H-10-oxa-4,8-dithia-1(4,1)-indola-2(3,2)-pyrrolo[1,2-b]pyrazola-6(3,5)-pyrazola-9(3,1)-naphthalenacyclotridecaphane-1^2-carboxylic acid]	14 nM	53 nM	53 µL/min/mg	31.2 µL/min/mg	18.2 µL/min/mg	< 1 µg/mL	–	–	–	–	–	220 nM	–

The next lines start with results.

IC50 [1]	IC50 (NCI-H929 cells; Homo sapiens, NCI-H929, 24 h)	microsomal CLint at 5 μM [2]	microsomal CLint at 5 μM [3]	microsomal CLint at 5 μM [4]	solubility [5]	IC50 (NCI-H929 cells; 24 hrs)	Mouse Liver Microsome Clint (μL/min/mg protein) [2]	Rat Liver Microsome Clint (μL/min/mg protein) ([3]; rat liver microsomes, 5 μM)	Human Liver Microsome Clint (μL/min/mg protein) ([4]; human liver microsomes, 5 μM)	Solubility (pH 6.5, μg/mL) ([5]; PBS buffer pH 6.5)	SMILES	IC50 (OPM-2 cells; Homo sapiens, OPM-2, 24 h)	IC50 (OPM-2 cells; 24 hours)
21 nM	87 nM	53 µL/min/mg	29.8 µL/min/mg	28.4 µL/min/mg	4 µg/mL (≈ 5.3 µM)	–	–	–	–	–	Cc1c(C(=O)O)n2c3ccc(Cl)c(c13)-c1c(nn(C)c1C)CN(Cc1ncco1)Cc1cc(n(C)n1)CSc1cc(c3ccc(F)cc3c1)OCCC2 [Cpd. No. 52, (Z)-1^5-chloro-9^6-fluoro-1^3,2^1,2^5,6^1-tetramethyl-4-(oxazol-2-ylmethyl)-1^1H,2^1H,6^1H-10-oxa-8-thia-4-aza-1(4,1)-indola-2(4,3),6(3,5)-dipyrazola-9(3,1)-naphthalenacyclotridecaphane-1^2-carboxylic acid]	699 nM	–
36 nM	–	–	10.8 µL/min/mg	4.4 µL/min/mg	> 400 µg/mL	213 nM	35.0 μL/min/mg protein	–	–	–	Cc1c(C(=O)O)n2c3ccc(Cl)c(c13)-c1c(nn(C)c1C)CN(S(C)(=O)=O)Cc1cc(n(C)n1)CSc1cc(c3ccc(F)cc3c1)OCCC2 [Cpd. No. 32, (Z)-1^5-chloro-9^6-fluoro-1^3,2^1,2^5,6^1-tetramethyl-4-(methylsulfonyl)-1^1-H,2^1H, 6′H-10-oxa-8-thia-4-aza-1(4,1)-indola-2(4,3),6(3,5)-dipyrazola-9(3,1)-naphthalenacyclotridecaphane-1^2-carboxylic acid]	–	542 nM
> 1000 nM	–	–	–	–	–	7440 nM	245 μL/min/mg protein	111 μL/min/mg protein	38.0 μL/min/mg protein	6 μg/mL	Cc1c(C(=O)O)n2c3ccc(Cl)c(c13)-c1c(nn(C)c1C)CSCc1cc(n(C)n1)CSc1cc(c3ccccc3c1)OCCC2 (atropisomer, axis not shown) [Cpd. No. 7, (S)-(Z)-1^5-chloro-1^3,2^1,2^5,6^1-tetramethyl-1^1H,2^1H,6^111-10-oxa-4,8-dithia-1(4,1)-indola-2(4,3),6(3,5)-dipyrazola-9(3,1)-naphthalenacyclotridecaphane-1^2-carboxylic acid]	–	> 10000 nM
